Test results from PMC6315694, “Synthesis of Pseudellone Analogs and Characterization as Novel T-type Calcium Channel Blockers” (Marine Drugs, 2018).

Key:
human CaV3.1 = target: T1, human CaV3.1 (Homo sapiens, UniProt O43497); assay: T-type calcium channel window current FLIPR assay, CaV3.1; format: cell-based; conditions: for IC50: FLIPR window current assay, transiently transfected HEK293T, N = 3, mean ± SEM, read-out: IC50 CaV3.1 (LVA CaVs)
T1 construct: expressed in transfected cells; host or cells: HEK 293T, transient transfection (FuGENE HD)
Description: (§1) The human embryonic kidney 293 (HEK 293) cell lines (from Emmanuel Bourinet, Montpellier, France) stably expressing CaV3.2 or CaV3.3 were cultured under 5% carbon dioxide at 37 °C in Dulbecco’s Modified Eagle Medium (DMEM) Glutamax (Gibco, Life Technologies, Carlsbad, CA, USA) supplemented with 10% (v/v) fetal bovine serum (FBS), 100 U/mL penicillin, 100 μg/mL streptomycin (Gibco, Life Technologies), and 750 μg/mL geneticin (G418) (Gibco, Life Technologies). The Chinese Hamster Ovary (CHO) cell lines (Emmanuel Bourinet, Montpellier, France) expressing CaV3.1 were cultured under 5% carbon dioxide at 37 °C in Alpha Minimum Essential Media (MEM) Glutamax (Gibco, Life Technologies), supplemented with 10% (v/v) fetal bovine serum (FBS) and 300 μg/mL geneticin (G418) (Gibco, Life Technologies). The human neuroblastoma SH-SY5 Y cells (Victor Diaz, Goettingen, Germany) were cultured under 5% carbon dioxide at 37 °C in RPMI 1640 antibiotic-free medium (Invitrogen, Carlsbad, CA, USA), supplemented with 15% FBS and 2 mM GlutaMAX™ (Invitrogen). D-PBS (Gibco, Life Technologies) was used to wash the cells, and 0.25% Trypsin-EDTA (Gibco, Life Technologies) was used to detach cells from the flask surface. They were split in a ratio of 1:5 (ideally 1000 cells/cm^2) when they reached 70%–80% confluence (every 2–3 days). Transiently transfected CaV3.1HEK293 T cells were used in FLIPR Assays. HEK 293 T cells were cultured under 5% carbon dioxide at 37 °C in DMEM supplemented with 10% (v/v) FBS. D-PBS was used to wash the cells, and 0.25% Trypsin-EDTA was used to detach cells from the flask surface. The cells were split and seeded at 6 million cells per T175 flask, to reach 70%–80% confluence after 24 h. The next day, 12 μg DNA of human CaV3.1 was incubated in 900 μL serum-free DMEM with 36 μL FuGENE HD transfection reagent (Promega Corporation, Madison, WI, US) (1:3 DNA/Fugene ratio) for 20 min, and then the mixture was added into the cell flask slowly, drop by drop. After the transfection, the cells were cultured under 5% carbon dioxide at 37 °C for 24 h and then moved to a 28 °C incubator.
(§2) HEK 293 cells stably expressing CaV3.2 or CaV3.3 were seeded into 384-well black wall clear bottom plates (Corning, Lowell, MA, USA) at a density of 30,000 cells per well. Transiently transfected CaV3.1HEK293 T cells were seeded into 384-well black wall clear bottom plates at a density of 60,000 cells per well. Once the cells reached 90%–95% confluence after 24 h, the media were removed from the wells and replaced with 20 μL of 10% calcium 4 dye (Molecular Devices, Sunnyvale, CA, USA) in HBSS-HEPES (containing 5 mM KCl, 10 mM HEPES, 140 mM NaCl, 10 mM glucose, and 0.5 mM CaCl2, pH 7.4) with 0.1% bovine serum albumin (BSA). The cells were incubated for 30 min at 37 °C in the presence of 5% carbon dioxide. Each well on the reagent plates for the first addition contained 15 μL different concentrations of compounds dissolved in HBSS-HEPES containing 0.1% BSA and <0.1% DMSO and was incubated for 20 min after loading. Positive and negative controls contained 15 μL of HBSS-HEPES (0.1% BSA) alone. The plates were placed in the FLIPR^TETRA (Molecular Devices, Sunnyvale, CA, USA) programmed to measure maximum fluorescence intensity following a second addition of the agonist 5 mM CaCl2. The data acquisition parameters were adjusted as follows: Baseline fluorescence of 1500–2000 arbitrary fluorescence units (AFU), emission wavelength of 515–575 nm, and excitation wavelength of 470–495 nm. HBSS-HEPES (0.1% BSA) was used in the second addition as a negative control. One fluorescence reading was taken before the second addition. Then the fluorescence readings were recorded every two seconds for 300 s. Raw fluorescence readings in the form of relative light units were converted to response over baseline using ScreenWorks® (Molecular Devices, version 3.2.0.14) software.
(§3) Data were plotted and analyzed using GraphPad Prism v7.0 (GraphPad Software Inc., San Diego, CA, USA).

CaV3.2 = CaV3.2 (Homo sapiens, UniProt O95180); assay: T-type calcium channel window current FLIPR assay, CaV3.2; format: cell-based; conditions: FLIPR window current assay, HEK 293 stable, N = 3, mean ± SEM; read-out: IC50 CaV3.2 (LVA CaVs)
Description: as §1, §2, §3

CaV3.3 = CaV3.3 (Homo sapiens, UniProt Q9P0X4); assay: T-type calcium channel window current FLIPR assay, CaV3.3; format: cell-based; conditions: for IC50: FLIPR window current assay, HEK 293 stable, N = 3, mean ± SEM, read-out: IC50 CaV3.3 (LVA CaVs)
Description: as §1, §2, §3

N-type CaV2.2 = target: T2, N-type CaV2.2 (Homo sapiens, UniProt Q00975); assay: HVA calcium channel FLIPR assay, N-type (SH-SY5Y cells); format: cell-based; conditions: for IC50: 10 µM nifedipine present, N = 3, mean ± SEM, read-out: IC50 CaV2.2 (HVA CaVs)
T2 construct: endogenous in cells
Description: as §1
SH-SY5Y cells were seeded into 384-well black wall clear bottom plates at a density of 15,000 cells per well, resulting in 90%–95% confluence after 24 h. The media were then removed from the wells and replaced with 20 μL of 10% calcium 4 dye (Molecular Devices) in physiological salt solution (PSS) (containing 5.9 mM KCl, 1.4 mM MgCl2, 10 mM HEPES, 1.2 mM NaH2 PO4, 5 mM NaHCO3, 140 mM NaCl, 11.5 mM glucose, and 1.8 mM CaCl2, pH 7.4) with 0.1% BSA. […] Positive control on the first reagent plate contained 15 μL of PSS (0.1% BSA), whereas PSS (0.1% BSA) containing 1 µM CVID and 10 µM nifedipine (final concentration) was used as a negative control. The fluorescence readings were recorded and converted as described previously, and agonist containing 90 mM KCl + 5 mM CaCl2 was used in the second addition.
Data were plotted and analyzed using GraphPad Prism v7.0 (GraphPad Software Inc., San Diego, CA, USA). A four-parameter logistic Hill equation with variable Hill coefficients was fitted to the data for concentration-response curves. Data are means ± SEM of n independent experiments. Statistical analysis was performed with a paired Student’s t-test with statistical significance at p < 0.05.

[1] = test system: L-type calcium channel (CaV1); assay: HVA calcium channel FLIPR assay, L-type (SH-SY5Y cells); format: cell-based, human; conditions: 1 µM CVID present, N = 3, mean ± SEM, read-out: IC50 CaV1 (HVA CaVs)
Description: as §1
SH-SY5Y cells were seeded into 384-well black wall clear bottom plates at a density of 15,000 cells per well, resulting in 90%–95% confluence after 24 h. […] The fluorescence readings were recorded and converted as described previously, and agonist containing 90 mM KCl + 5 mM CaCl2 was used in the second addition.
Data were plotted and analyzed using GraphPad Prism v7.0 (GraphPad Software Inc., San Diego, CA, USA). […]

[2] = test system: voltage-gated calcium channels (VGCCs); assay: FLIPR cell-based assays on VGCCs (overall statement); set-up: species or system human; conditions: all VGCC FLIPR assays (CaV3.1, CaV3.2, CaV3.3, CaV2.2, CaV1)
Description: as §2

[3] = test system: T-type calcium channel (CaV3.x); set-up: method as in PMID 22344687, PMID 19582593; conditions: activated current generated from the channel-closed state; cited from earlier work

T1 sequence (O43497 whole entry): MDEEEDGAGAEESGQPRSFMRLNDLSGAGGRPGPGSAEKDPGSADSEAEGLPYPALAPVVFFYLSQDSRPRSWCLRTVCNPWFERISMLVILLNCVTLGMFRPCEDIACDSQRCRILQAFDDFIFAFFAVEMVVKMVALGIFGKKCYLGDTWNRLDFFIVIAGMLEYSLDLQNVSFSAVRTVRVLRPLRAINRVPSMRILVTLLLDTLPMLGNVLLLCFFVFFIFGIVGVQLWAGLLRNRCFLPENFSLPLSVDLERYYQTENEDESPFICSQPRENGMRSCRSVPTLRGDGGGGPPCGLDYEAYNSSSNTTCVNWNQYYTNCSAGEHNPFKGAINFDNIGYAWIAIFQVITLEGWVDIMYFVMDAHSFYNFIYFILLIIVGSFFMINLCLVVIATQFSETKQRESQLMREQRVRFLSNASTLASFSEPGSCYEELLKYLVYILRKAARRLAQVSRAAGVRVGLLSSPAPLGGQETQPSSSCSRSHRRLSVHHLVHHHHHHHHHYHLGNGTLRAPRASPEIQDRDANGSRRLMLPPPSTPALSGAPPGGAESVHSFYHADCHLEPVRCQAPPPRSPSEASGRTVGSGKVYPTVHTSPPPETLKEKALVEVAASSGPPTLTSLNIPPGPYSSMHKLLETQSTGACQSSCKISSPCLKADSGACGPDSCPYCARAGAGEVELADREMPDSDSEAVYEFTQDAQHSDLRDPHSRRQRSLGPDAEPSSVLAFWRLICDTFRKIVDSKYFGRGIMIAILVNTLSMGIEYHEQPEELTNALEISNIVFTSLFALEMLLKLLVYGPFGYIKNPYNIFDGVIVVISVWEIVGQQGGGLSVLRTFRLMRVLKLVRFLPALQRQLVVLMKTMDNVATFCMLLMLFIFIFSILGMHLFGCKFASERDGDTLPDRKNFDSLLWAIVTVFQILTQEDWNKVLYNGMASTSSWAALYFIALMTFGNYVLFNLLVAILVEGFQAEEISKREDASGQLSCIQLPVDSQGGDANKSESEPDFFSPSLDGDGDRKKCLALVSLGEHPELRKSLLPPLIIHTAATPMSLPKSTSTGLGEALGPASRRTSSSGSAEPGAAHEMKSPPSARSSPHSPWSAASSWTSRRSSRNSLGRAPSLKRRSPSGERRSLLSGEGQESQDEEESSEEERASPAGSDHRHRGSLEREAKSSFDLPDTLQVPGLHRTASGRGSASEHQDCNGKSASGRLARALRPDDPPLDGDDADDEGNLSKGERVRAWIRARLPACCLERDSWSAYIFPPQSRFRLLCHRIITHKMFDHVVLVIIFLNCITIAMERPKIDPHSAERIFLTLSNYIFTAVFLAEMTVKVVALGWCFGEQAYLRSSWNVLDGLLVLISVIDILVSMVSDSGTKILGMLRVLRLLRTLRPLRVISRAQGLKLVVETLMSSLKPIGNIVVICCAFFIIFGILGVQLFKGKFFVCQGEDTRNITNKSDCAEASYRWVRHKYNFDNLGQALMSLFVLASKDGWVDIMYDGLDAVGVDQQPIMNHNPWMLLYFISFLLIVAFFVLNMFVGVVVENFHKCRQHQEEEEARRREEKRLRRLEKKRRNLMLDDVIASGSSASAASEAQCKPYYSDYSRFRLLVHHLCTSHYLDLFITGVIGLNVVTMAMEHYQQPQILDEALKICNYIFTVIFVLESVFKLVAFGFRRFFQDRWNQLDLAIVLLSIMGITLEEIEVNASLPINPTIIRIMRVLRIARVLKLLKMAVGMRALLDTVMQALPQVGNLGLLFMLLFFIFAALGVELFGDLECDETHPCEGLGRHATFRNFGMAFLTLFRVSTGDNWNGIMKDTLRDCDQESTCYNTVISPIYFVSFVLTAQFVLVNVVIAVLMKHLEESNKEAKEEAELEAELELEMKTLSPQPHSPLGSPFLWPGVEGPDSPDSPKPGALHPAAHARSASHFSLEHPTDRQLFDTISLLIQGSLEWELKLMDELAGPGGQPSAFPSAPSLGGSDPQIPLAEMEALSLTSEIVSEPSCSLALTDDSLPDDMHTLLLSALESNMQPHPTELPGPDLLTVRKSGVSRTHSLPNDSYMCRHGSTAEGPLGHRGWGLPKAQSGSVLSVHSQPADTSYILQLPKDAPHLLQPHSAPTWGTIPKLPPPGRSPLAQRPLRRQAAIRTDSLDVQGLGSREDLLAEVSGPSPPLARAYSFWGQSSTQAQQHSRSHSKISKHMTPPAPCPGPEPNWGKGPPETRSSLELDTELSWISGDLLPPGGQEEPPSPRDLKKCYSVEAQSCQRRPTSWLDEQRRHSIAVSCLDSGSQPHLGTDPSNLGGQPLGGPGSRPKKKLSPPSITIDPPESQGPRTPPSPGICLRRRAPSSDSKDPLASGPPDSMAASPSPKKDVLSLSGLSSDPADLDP
Chain of CaV3.2 (O95180 whole entry): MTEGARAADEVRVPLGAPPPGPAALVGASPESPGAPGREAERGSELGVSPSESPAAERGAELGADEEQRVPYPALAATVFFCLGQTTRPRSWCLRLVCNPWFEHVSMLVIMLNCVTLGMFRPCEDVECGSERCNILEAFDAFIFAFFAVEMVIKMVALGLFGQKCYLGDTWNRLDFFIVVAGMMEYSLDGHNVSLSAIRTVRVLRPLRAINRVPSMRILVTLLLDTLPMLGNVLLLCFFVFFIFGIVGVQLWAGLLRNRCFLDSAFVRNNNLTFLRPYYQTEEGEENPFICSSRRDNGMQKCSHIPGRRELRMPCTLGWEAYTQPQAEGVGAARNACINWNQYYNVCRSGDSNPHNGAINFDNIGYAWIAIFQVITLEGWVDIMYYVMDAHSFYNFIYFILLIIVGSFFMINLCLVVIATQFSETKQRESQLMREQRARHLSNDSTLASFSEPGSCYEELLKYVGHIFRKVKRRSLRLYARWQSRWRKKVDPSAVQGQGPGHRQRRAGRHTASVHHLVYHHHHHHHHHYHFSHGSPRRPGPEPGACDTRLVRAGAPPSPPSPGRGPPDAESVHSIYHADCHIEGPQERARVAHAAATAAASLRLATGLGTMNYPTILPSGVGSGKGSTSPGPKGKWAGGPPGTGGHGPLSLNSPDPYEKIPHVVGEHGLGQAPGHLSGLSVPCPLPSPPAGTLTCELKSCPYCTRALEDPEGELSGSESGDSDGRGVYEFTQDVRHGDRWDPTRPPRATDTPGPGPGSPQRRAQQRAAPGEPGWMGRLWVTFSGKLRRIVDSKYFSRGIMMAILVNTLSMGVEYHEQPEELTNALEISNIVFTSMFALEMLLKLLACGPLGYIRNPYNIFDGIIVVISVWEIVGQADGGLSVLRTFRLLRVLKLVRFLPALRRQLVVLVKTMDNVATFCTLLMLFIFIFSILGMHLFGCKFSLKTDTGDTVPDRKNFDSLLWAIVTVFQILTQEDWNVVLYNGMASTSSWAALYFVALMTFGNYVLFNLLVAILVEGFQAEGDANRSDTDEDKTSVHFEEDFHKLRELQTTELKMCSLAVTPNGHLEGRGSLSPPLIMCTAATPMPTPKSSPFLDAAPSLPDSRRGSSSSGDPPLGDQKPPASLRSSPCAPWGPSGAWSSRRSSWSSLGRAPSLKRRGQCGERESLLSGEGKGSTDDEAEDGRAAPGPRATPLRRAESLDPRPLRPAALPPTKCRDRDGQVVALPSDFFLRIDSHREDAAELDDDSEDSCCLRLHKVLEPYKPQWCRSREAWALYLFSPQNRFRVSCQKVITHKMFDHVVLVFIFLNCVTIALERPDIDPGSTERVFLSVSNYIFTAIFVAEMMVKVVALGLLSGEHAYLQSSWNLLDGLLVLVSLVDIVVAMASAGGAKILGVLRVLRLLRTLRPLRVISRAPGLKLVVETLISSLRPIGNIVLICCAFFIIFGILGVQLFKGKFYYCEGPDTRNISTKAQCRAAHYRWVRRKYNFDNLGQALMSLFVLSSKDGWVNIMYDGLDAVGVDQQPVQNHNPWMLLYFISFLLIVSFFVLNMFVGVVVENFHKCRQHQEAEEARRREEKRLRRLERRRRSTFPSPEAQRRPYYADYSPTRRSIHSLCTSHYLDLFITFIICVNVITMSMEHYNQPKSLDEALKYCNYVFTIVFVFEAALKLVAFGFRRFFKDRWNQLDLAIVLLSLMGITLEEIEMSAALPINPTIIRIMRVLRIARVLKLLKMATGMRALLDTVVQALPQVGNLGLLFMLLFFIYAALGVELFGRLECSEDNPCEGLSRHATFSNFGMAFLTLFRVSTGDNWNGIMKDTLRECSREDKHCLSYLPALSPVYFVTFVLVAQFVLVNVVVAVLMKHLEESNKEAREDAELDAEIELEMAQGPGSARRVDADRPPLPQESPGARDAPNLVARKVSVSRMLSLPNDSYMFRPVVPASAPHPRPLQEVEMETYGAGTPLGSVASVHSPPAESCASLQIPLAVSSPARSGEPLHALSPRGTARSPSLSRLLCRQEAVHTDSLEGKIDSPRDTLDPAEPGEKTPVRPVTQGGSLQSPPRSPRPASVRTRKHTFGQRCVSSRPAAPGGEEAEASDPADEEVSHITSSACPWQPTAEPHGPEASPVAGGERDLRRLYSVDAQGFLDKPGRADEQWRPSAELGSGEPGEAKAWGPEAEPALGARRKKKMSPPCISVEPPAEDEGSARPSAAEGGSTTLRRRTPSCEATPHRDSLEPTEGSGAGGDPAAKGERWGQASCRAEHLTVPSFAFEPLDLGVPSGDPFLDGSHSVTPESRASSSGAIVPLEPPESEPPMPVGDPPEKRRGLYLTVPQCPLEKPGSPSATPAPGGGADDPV

Kind of block of CaV3.1, in words (human CaV3.1; FLIPR) | IC50 (human CaV3.1) | Emax (human CaV3.1; FLIPR, n = 3, read-out: Emax, inhibition for CaV3.1) | IC50 (CaV3.2) | Further reduced potency for CaV3.3 compared to 2 (CaV3.3; FLIPR) | IC50 (CaV3.3) | Kind of block of CaV2.2, in words (N-type CaV2.2) | IC50 (N-type CaV2.2; SH-SY5Y) | Emax (N-type CaV2.2; SH-SY5Y, n = 3, read-out: Emax, inhibition for N-type CaV2.2) | IC50 [1] | Structure (SMILES) | Inhibition of Ca2+ responses, in words [2] | Potency for T-type window currents versus activated current, in words [3]
partial blocking | 53.5 ± 2.72 µM | 63.6% | 44 ± 1.6 µM | > 3 fold | 26.6 ± 1.23 µM | partial blocking | 82.5 ± 7.6 µM | 39.3% | 322 ± 21.6 µM | CNC(=O)C(NC(=O)C(C)(c1c[nH]c2ccccc12)c1c[nH]c2ccccc12)C(=O)c1c[nH]c2ccccc12 (stereo not drawn) [Compound 1, Pseudellone C] | weak calcium channel blocker | –
– | 122 ± 5.96 µM | – | 80.7 ± 6.21 µM | – | 90.1 ± 4.99 µM | – | 147 ± 1.72 µM | – | 132 ± 1.63 µM | CC(C(=O)N[C@@H](Cc1c[nH]c2ccccc12)C(=O)O)(c1c[nH]c2ccccc12)c1c[nH]c2ccccc12 [Compound 3a, (2,2-di(1H-indol-3-yl)propanoyl)-L-tryptophan] | poor inhibition | –
– | 72.28 ± 0.41 µM | – | 132 ± 6.13 µM | – | 119 ± 8.66 µM | – | 179 ± 19.7 µM | – | 264 ± 11.9 µM | CC(C(=O)O)(c1c[nH]c2ccccc12)c1c[nH]c2ccccc12 [Compound 4, 2,2-di(1H-indol-3-yl)propanoic Acid] | poor inhibition | –

The remaining lines, values behind:

Structure (SMILES) | Kind of block of CaV3.1, in words (human CaV3.1; FLIPR) | IC50 (human CaV3.1) | Emax (human CaV3.1; FLIPR, n = 3, read-out: Emax, inhibition for CaV3.1) | IC50 (CaV3.2) | Further reduced potency for CaV3.3 compared to 2 (CaV3.3; FLIPR) | IC50 (CaV3.3) | Kind of block of CaV2.2, in words (N-type CaV2.2) | IC50 (N-type CaV2.2; SH-SY5Y) | Emax (N-type CaV2.2; SH-SY5Y, n = 3, read-out: Emax, inhibition for N-type CaV2.2) | IC50 [1] | Inhibition of Ca2+ responses, in words [2] | Potency for T-type window currents versus activated current, in words [3]
CC(C)(C)NC(=O)CN1CCC(CNC(=O)c2cc(F)cc(Cl)c2)CC1 [Compound Z944] | – | – | – | – | – | – | – | – | – | – | – | better potency for T-type window currents than the activated current
C[C@@H](NC(=O)Cc1ccc(C2CC2)cc1)c1ccc(OCC(F)(F)F)cn1 [TTA-A2] | – | – | – | – | – | – | – | – | – | – | – | better potency for T-type window currents than the activated current
O=c1[nH]c2ccccc2n1C1CCN(CCCC(c2ccc(F)cc2)c2ccc(F)cc2)CC1 [pimozide, reference compound] | – | – | – | 4.2 ± 1.06 µM | – | 7.71 ± 0.7 µM | – | – | – | – | – | –
